Tests used:
EGFR (ErbB1) = EGFR (ErbB1) (Homo sapiens (Human), UniProt P00533); experiment: Z'-LYTE kinase inhibition assay, EGFR; format: biochemical; details: read-out: % inhibition against EGFR (Compound at 0.041 μM)
How it was run: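 IC50 values derived from 10-point, 3-fold compound dilution series (1% DMSO final) using Z'-LYTE fluorescence readout after 60-min development. Reaction: EGFR (1.1-5.25 ng) with 2 μM peptide, 60 min at room temperature in HEPES pH 7.5 buffer containing MgCl2, MnCl2, EGTA, DTT and BRIJ-35.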

EGFR (ErbB1) T790M L858R = EGFR (ErbB1) T790M L858R (Homo sapiens (Human), UniProt P00533, L858R/T790M); experiment: Z'-LYTE kinase inhibition assay, EGFR L858R/T790M; format: biochemical; details: for inhibition at 0.0137 µM: read-out: % inhibition against EGFR L858R/T790M (Compound at 0.0137 μM); for IC50: read-out: IC50 against EGFR L858R/T790M; for inhibition at 1 µM: read-out: % inhibition against EGFR L858R/T790M (Compound at 1 μM)
How it was run: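 IC50 taken from 10-point, 3-fold serial dilutions tested in 1% DMSO. The mutant kinase and peptide were prepared in HEPES pH 6.5 buffer with BRIJ-35, MgCl2, EGTA and NaN3, then reacted with ATP for 1 h at room temperature. Development reagent was added for a further hour before the fluorescence readout.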

A431 cells = experiment: cells; details: Homo sapiens, A-431, 72 h, read-out: IC50 in A431 cells
H1975 cells = experiment: Inhibition of cancer cell growth, MTT assay, H1975; details: Homo sapiens, NCI-H1975, 72 h, read-out: IC50 in H1975 cells
BTK = BTK (Homo sapiens (Human), UniProt Q06187); experiment: Z'-LYTE kinase inhibition assay, BTK; format: biochemical; details: for inhibition at 0.041 µM: compound at 0.041 μM, read-out: % inhibition against BTK
Procedure: Inhibitory activities of compounds against BTK, EGFR and EGFR mutants (EGFR L858R, EGFR T790M, EGFR L858R/T790M), FGFR1, FGFR2, JAK2, JAK3 and KDR were measured by Invitrogen using Z'-LYTE® Method as briefly described in the following.
Test Compounds are screened in 1% DMSO (final) in the well. For 10 point titrations, 3-fold serial dilutions are conducted from the starting concentration. All ATP Solutions are diluted to a 4× working concentration in Kinase Buffer (50 mM HEPES pH 7.5, 0.01% BRIJ-35, 10 mM MgCl2, 1 mM EGTA). Peptide/Kinase Mixtures are diluted to a 2× working concentration in the appropriate Kinase Buffers as described below.
(v) Peptide/Kinase Mixtures for Measurement of BTK:
The 2×BTK/Tyr 01 mixture is prepared in 50 mM HEPES pH 7.5. 0.01% BRIJ-35, 10 mM MgCl2, 1 mM EGTA.
The mixture is then incubated for another 60-minute at room temperature for development reaction. Finally fluorescence is read by plate reader.
To determine IC50 of a compound against EGFR, EGFR mutant and other kinases, a series of concentrations of the compound were tested for the inhibition. […] The scale utilized in Table 4 is as follows: +++ less than 100 nM, ++ 100-500 nM and + greater than 500 nM.

HCC827 cells = experiment: cells; details: Homo sapiens, HCC827, 72 h, read-out: IC50 in HCC827 cells

Sequence of EGFR (ErbB1) T790M L858R (P00533 25-1210 T790M/L858R): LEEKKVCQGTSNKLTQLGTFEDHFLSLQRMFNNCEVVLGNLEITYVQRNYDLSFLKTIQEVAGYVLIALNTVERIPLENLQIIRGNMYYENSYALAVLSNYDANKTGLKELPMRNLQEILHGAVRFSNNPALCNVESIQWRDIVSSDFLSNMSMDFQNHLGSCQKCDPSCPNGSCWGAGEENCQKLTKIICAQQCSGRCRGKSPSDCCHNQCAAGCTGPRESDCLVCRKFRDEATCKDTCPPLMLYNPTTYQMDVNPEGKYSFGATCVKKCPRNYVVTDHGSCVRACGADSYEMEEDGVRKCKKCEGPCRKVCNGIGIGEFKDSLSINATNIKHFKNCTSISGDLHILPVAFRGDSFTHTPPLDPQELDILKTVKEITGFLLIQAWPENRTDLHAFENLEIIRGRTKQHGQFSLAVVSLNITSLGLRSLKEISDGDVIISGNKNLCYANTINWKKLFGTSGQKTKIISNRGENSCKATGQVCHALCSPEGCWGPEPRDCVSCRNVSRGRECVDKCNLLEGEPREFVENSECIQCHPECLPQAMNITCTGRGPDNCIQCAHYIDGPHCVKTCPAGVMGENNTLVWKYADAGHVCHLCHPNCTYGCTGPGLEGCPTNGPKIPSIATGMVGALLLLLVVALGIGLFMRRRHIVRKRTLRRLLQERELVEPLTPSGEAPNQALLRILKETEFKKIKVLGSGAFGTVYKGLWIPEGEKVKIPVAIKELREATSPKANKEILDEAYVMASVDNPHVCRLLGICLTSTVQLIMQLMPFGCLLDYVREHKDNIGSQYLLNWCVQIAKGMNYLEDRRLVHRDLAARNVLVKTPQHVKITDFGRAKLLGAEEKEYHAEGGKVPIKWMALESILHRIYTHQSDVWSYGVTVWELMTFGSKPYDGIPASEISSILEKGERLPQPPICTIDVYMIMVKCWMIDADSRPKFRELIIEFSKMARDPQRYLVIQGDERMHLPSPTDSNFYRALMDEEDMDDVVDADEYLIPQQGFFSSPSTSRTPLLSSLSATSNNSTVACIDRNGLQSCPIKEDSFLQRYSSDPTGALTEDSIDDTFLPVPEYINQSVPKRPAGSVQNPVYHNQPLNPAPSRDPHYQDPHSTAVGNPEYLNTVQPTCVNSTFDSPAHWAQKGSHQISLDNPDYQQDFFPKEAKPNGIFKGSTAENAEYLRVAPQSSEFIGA
Sequence of BTK (Q06187 whole entry): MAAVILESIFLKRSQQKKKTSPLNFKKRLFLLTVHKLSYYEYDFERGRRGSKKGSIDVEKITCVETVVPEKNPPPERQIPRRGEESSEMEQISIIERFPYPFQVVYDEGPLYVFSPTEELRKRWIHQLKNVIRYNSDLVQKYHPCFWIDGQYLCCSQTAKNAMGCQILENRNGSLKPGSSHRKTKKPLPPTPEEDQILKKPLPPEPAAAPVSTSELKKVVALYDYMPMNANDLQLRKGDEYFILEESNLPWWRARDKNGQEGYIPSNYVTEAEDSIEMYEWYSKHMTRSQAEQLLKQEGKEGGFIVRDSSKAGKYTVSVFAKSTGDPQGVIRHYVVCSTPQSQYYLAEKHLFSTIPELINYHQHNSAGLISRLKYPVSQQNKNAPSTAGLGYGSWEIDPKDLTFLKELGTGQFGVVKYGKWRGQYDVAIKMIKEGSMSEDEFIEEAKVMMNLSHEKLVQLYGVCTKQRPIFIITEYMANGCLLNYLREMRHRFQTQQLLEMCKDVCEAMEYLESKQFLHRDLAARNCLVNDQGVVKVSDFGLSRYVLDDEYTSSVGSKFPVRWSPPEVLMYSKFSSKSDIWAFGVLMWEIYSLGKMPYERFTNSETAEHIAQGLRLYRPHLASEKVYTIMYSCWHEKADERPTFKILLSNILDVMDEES
Sequence of EGFR (ErbB1) (P00533 25-1210): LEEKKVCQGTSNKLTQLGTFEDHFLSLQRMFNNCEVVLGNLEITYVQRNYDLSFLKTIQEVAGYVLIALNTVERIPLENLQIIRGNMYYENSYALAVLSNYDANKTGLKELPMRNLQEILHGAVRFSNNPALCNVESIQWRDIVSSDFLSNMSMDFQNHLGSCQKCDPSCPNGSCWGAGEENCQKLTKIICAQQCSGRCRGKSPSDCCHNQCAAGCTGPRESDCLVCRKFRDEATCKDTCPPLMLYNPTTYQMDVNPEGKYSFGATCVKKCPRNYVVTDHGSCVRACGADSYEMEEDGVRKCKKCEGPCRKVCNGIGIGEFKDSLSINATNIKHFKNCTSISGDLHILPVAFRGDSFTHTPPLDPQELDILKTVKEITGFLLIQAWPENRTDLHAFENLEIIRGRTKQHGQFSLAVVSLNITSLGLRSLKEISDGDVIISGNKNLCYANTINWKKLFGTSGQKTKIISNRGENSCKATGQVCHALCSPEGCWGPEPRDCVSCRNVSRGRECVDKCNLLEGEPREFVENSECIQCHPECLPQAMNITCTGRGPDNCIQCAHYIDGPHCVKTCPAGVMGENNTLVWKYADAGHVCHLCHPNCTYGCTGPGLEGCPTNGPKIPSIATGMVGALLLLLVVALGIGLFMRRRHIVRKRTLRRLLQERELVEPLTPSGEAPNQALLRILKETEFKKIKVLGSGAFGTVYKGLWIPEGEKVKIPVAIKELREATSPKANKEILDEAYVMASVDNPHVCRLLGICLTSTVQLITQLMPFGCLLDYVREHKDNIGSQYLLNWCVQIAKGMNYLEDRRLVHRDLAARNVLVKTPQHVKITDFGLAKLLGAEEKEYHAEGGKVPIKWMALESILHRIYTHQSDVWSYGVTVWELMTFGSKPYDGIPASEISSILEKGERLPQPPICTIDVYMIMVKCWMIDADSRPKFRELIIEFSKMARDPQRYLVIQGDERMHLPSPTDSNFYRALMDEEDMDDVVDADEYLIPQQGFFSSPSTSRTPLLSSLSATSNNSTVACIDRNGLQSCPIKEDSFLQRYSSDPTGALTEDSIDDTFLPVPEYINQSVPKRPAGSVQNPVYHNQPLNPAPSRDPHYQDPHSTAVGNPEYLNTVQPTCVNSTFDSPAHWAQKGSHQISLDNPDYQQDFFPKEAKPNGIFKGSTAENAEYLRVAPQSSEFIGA

| inhibition at 0.041 µM (EGFR (ErbB1)) | inhibition at 0.0137 µM (EGFR (ErbB1) T790M L858R) | IC50 (EGFR (ErbB1) T790M L858R) | IC50 (A431 cells) | IC50 (H1975 cells) | inhibition at 0.041 µM (BTK) | IC50 (HCC827 cells) | inhibition at 1 µM (EGFR (ErbB1) T790M L858R) | Compound | IC50 (BTK; read-out: IC50 against BTK) |
| --- | --- | --- | --- | --- | --- | --- | --- | --- | --- |
| < 50% | > 50% | < 100 nM | 100 to 500 nM | < 100 nM | > 50% |  |  | C=CC(=O)Nc1cccc(-c2cccc3cnc(Nc4ccc(OCCN5CCC5)cc4)nc23)c1 [Example C109, N-(3-(2-((4-(2-(azetidin-1-yl)ethoxy)phenyl)amino)quinazolin-8-yl)phenyl)acrylamide] |  |
| > 50% | > 50% | < 100 nM | < 100 nM | < 100 nM | > 50% |  |  | C=CC(=O)Nc1cccc(-c2cccc3cnc(Nc4ccc(O[C@@H]5CCN(C)C5)cc4)nc23)c1 [Example C123, (R)-N-(3-(2-((4-((1-methylpyrrolidin-3-yl)oxy)phenyl)amino)quinazolin-8-yl)phenyl)acrylamide] |  |
| > 50% | > 50% | < 100 nM | < 100 nM | < 100 nM | > 50% |  |  | C=CC(=O)Nc1cccc(-c2cccc3cnc(Nc4ccc(OC5CCN(C)CC5)cc4)nc23)c1 [Example C126, N-(3-(2-((4-((1-methylpiperidin-4-yl)oxy)phenyl)amino)quinazolin-8-yl)phenyl)acrylamide] |  |
| < 50% | < 50% |  |  | < 100 nM | > 50% |  |  | C=CC(=O)Nc1cccc(-c2cccc3cnc(Nc4ccc(OC5CN(C(C)=O)C5)cc4)nc23)c1 [Example C122, N-(3-(2-((4-((1-acetylazetidin-3-yl)oxy)phenyl)amino)quinazolin-8-yl)phenyl)acrylamide] |  |
| < 50% | < 50% |  |  | 100 to 500 nM | > 50% |  |  | C=CC(=O)Nc1cccc(-c2cccc3cnc(Nc4ccc(N[C@@H]5CCOC5)cc4)nc23)c1 [Example C115, (R)-N-(3-(2-((4-((tetrahydrofuran-3-yl)amino)phenyl)amino)quinazolin-8-yl)phenyl)acrylamide] |  |
| < 50% | < 50% |  |  | < 100 nM | > 50% |  |  | C=CC(=O)Nc1cccc(-c2cccc3cnc(Nc4ccc(N[C@H]5CCOC5)cc4)nc23)c1 [Example C114, (S)-N-(3-(2-((4-((tetrahydrofuran-3-yl)amino)phenyl)amino)quinazolin-8-yl)phenyl)acrylamide] |  |
|  |  |  |  | < 100 nM |  | < 100 nM |  | C=CC(=O)Nc1cccc(-c2cccc3cnc(Nc4ccc(N5CCN(CC)CC5)cc4)nc23)c1F [Example C038, N-(3-(2-((4-(4-ethylpiperazin-1-yl)phenyl)amino)quinazolin-8-yl)-2-fluorophenyl)acrylamide] |  |
| < 50% | < 50% |  |  | < 100 nM | > 50% |  |  | C=CC(=O)Nc1cccc(-c2cccc3cnc(Nc4ccc(OC5CCN(C(C)=O)CC5)cc4)nc23)c1 [Example C125, N-(3-(2-((4-((1-acetylpiperidin-4-yl)oxy)phenyl)amino)quinazolin-8-yl)phenyl)acrylamide] |  |
| < 50% | < 50% |  |  | < 100 nM | > 50% |  |  | C=CC(=O)Nc1cccc(-c2cccc3cnc(Nc4ccc(O[C@@H]5CCOC5)cc4)nc23)c1 [Example C119, (R)-N-(3-(2-((4-((tetrahydrofuran-3-yl)oxy)phenyl)amino)quinazolin-8-yl)phenyl)acrylamide] |  |
|  |  |  |  | > 500 nM |  | > 500 nM | > 50% | Fc1ccc(Cl)cc1-c1cccc2cnc(Nc3ccc(N4CCNCC4)cc3)nc12 [Example C024, 8-(5-chloro-2-fluorophenyl)-N-(4-(piperazin-1-yl)phenyl)quinazolin-2-amine] |  |
| < 50% | < 50% |  |  | < 100 nM | > 50% |  |  | C=CC(=O)Nc1cccc(-c2cccc3cnc(Nc4ccc(O[C@H]5CCOC5)cc4)nc23)c1 [Example C113, (S)-N-(3-(2-((4-((tetrahydrofuran-3-yl)oxy)phenyl)amino)quinazolin-8-yl)phenyl)acrylamide] |  |

Second part, the molecule before the results:

| Compound | inhibition at 0.041 µM (EGFR (ErbB1)) | inhibition at 0.0137 µM (EGFR (ErbB1) T790M L858R) | IC50 (EGFR (ErbB1) T790M L858R) | IC50 (A431 cells) | IC50 (H1975 cells) | inhibition at 0.041 µM (BTK) | IC50 (HCC827 cells) | inhibition at 1 µM (EGFR (ErbB1) T790M L858R) | IC50 (BTK; read-out: IC50 against BTK) |
| --- | --- | --- | --- | --- | --- | --- | --- | --- | --- |
| C=CC(=O)Nc1cccc(-c2cccc3cnc(Nc4ccc(N5CCNC(=O)C5)cc4)nc23)c1 [Example C117, N-(3-(2-((4-(3-oxopiperazin-1-yl)phenyl)amino)quinazolin-8-yl)phenyl)acrylamide] | < 50% | < 50% |  |  | 100 to 500 nM | > 50% |  |  |  |
| C=CC(=O)Nc1cccc(-c2cccc3cnc(Nc4ccc(OC5CCOCC5)cc4)nc23)c1 [Example C112, N-(3-(2-((4-((tetrahydro-2H-pyran-4-yl)oxy)phenyl)amino)quinazolin-8-yl)phenyl)acrylamide] | < 50% | < 50% |  |  | < 100 nM | > 50% |  |  |  |
| C=CC(=O)Nc1cccc(-c2cccc3cnc(Nc4ccc(OCCN(C)C)cc4)nc23)c1 [Example C110, N-(3-(2-((4-(2-(dimethylamino)ethoxy)phenyl)amino)quinazolin-8-yl)phenyl)acrylamide] | < 50% | > 50% | < 100 nM | < 100 nM | < 100 nM | > 50% |  |  |  |
| Fc1ccc(OCCN2CCOCC2)cc1-c1cccc2cnc(Nc3ccc(N4CCNCC4)cc3)nc12 [Example C028, 8-(2-fluoro-5-(2-morpholinoethoxy)phenyl)-N-(4-(piperazin-1-yl)phenyl)quinazolin-2-amine] |  |  |  |  | > 500 nM |  | > 500 nM | > 50% |  |
| C=CC(=O)Nc1cccc(-c2cccc3cnc(Nc4ccc(NC5CCOCC5)cc4)nc23)c1 [Example C111, N-(3-(2-((4-((tetrahydro-2H-pyran-4-yl)amino)phenyl)amino)quinazolin-8-yl)phenyl)acrylamide] | < 50% | < 50% |  |  | < 100 nM | > 50% |  |  |  |
| C=CC(=O)Nc1cccc(-c2cccc3cnc(Nc4ccc(N5CCN(C)C(=O)C5)cc4)nc23)c1 [Example C116, N-(3-(2-((4-(4-methyl-3-oxopiperazin-1-yl)phenyl)amino)quinazolin-8-yl)phenyl)acrylamide] | < 50% | < 50% |  |  | 100 to 500 nM | > 50% |  |  |  |
| C=CC(=O)Nc1cccc(-c2cccc3cnc(Nc4ccc(NC5CN(C(C)=O)C5)cc4)nc23)c1 [Example C124, N-(3-(2-((4-((1-acetylazetidin-3-yl)amino)phenyl)amino)quinazolin-8-yl)phenyl)acrylamide] | < 50% | < 50% |  |  | < 100 nM | > 50% |  |  |  |
| C=CC(=O)Nc1cccc(-c2cccc3cnc(Nc4ccc(OCCO)cc4)nc23)c1 [Example C108, N-(3-(2-((4-(2-hydroxyethoxy)phenyl)amino)quinazolin-8-yl)phenyl)acrylamide] |  |  | < 100 nM | > 500 nM | < 100 nM |  |  |  | < 100 nM |
| C=CC(=O)Nc1cccc(-c2cccc3cnc(Nc4ccc(NC5CCN(C(C)=O)CC5)cc4)nc23)c1 [Example C120, N-(3-(2-((4-((1-acetylpiperidin-4-yl)amino)phenyl)amino)quinazolin-8-yl)phenyl)acrylamide] | < 50% | < 50% |  |  | < 100 nM | > 50% |  |  |  |
| C=CC(=O)Nc1cccc(-c2cccc3cnc(Nc4ccc(O[C@H]5CCN(C)C5)cc4)nc23)c1 [Example C121, (S)-N-(3-(2-((4-((1-methylpyrrolidin-3-yl)oxy)phenyl)amino)quinazolin-8-yl)phenyl)acrylamide] | < 50% | > 50% | < 100 nM | 100 to 500 nM | < 100 nM | > 50% |  |  |  |

From patent publication US10172868B2, “Substituted quinazolines for inhibiting kinase activity” (NeuPharma, Inc., priority 2013, dated 2019)
